Results as given in ChEMBL document CHEMBL1123584, “Xanthine functionalized congeners as potent ligands at A2-adenosine receptors” (J Med Chem, 1987).
pKi: −log10 of the molar value.

Assays:
[1] = Partition coefficient (logP); type: physicochemical; conditions: octanol/water
[2] = target: T1, Adenosine A2 receptor (Homo sapiens) (UniProt P29275+P29274); assay: Antagonism of NECA-induced stimulation of adenylate cyclase activity in human platelet membranes at A2-adenosine receptor; value ranges from […]-[…]; type: functional, cell membranes
[3] = target: T2, Adenosine receptor A1 (Rattus norvegicus, UniProt P25099); assay: Inhibition of [3H]- PIA binding at adenosine A1 receptor on rat cerebral cortex membranes.; type: cell membranes, Membrane
T2 sequence (P25099 whole entry): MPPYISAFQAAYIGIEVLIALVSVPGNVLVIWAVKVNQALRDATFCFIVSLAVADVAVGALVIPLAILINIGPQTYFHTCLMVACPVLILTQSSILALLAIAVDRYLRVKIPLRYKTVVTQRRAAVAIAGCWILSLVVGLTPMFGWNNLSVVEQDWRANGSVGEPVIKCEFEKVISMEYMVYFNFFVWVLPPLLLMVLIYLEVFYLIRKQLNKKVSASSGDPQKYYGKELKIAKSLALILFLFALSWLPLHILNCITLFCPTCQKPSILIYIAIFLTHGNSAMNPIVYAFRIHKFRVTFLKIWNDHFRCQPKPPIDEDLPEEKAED

[4] = target: T1, Adenosine A2 receptor (Homo sapiens); assay: Antagonism of NECA-induced stimulation of adenylate cyclase activity in human platelet membranes at A2-adenosine receptor; value ranges from 75-370; type: functional, cell membranes
[5] = target: T1, Adenosine A2 receptor (Homo sapiens); assay: Antagonism of NECA-induced stimulation of adenylate cyclase activity in human platelet membranes at A2-adenosine receptor; value ranges from 54-98; type: functional, cell membranes
[6] = target: T1, Adenosine A2 receptor (Homo sapiens); assay: Antagonism of NECA-induced stimulation of adenylate cyclase activity in human platelet membranes at A2-adenosine receptor; value ranges from 17-30; type: functional, cell membranes
[7] = target: T1, Adenosine A2 receptor (Homo sapiens); assay: Antagonism of NECA-induced stimulation of adenylate cyclase activity in human platelet membranes at A2-adenosine receptor; value ranges from 35-40; type: functional, cell membranes
[8] = target: T1, Adenosine A2 receptor (Homo sapiens); assay: Antagonism of NECA-induced stimulation of adenylate cyclase activity in human platelet membranes at A2-adenosine receptor; type: functional, cell membranes
[9] = target: T1, Adenosine A2 receptor (Homo sapiens); assay: Antagonism of NECA-induced stimulation of adenylate cyclase activity in human platelet membranes at A2-adenosine receptor; value ranges from 106-173; type: functional, cell membranes
[10] = target: T1, Adenosine A2 receptor (Homo sapiens); assay: Antagonism of NECA-induced stimulation of adenylate cyclase activity in human platelet membranes at A2-adenosine receptor; value ranges from 30-54; type: functional, cell membranes
[11] = target: T1, Adenosine A2 receptor (Homo sapiens); assay: Antagonism of NECA-induced stimulation of adenylate cyclase activity in human platelet membranes at A2-adenosine receptor; value ranges from 100-540; type: functional, cell membranes
[12] = target: T1, Adenosine A2 receptor (Homo sapiens); assay: Antagonism of NECA-induced stimulation of adenylate cyclase activity in human platelet membranes at A2-adenosine receptor; value ranges from 15-51; type: functional, cell membranes

Which logP [1] does the source give for Cn1c(=O)c2nc(-c3ccc(OCC(=O)Nc4ccc(CC(=O)NCCN)cc4)cc3)[nH]c2n(C)c1=O here?
The logP was -0.05.

What about the Kb [2] of the same compound?
The Kb was 63 nM.

With CCn1c(=O)c2nc(-c3ccc(OCC(=O)NCCN)cc3)[nH]c2n(CC)c1=O as the compound, how does the Kb [2] read?
The Kb was 21 nM.

With CCCn1c(=O)c2[nH]c(-c3ccc(OCC(=O)NCCNC(=O)[C@@H](N)CCCCN)cc3)nc2n(CCC)c1=O as the compound, how does the pKi [3] read?
The pKi was 9.06.

For CCC(=O)OCOc1ccc(-c2nc3c(=O)n(CC)c(=O)n(CC)c3[nH]2)cc1, which Kb [4] is on record?
Its Kb is 170 nM.

With CCOC(=O)COc1ccc(-c2nc3c(=O)n(CC)c(=O)n(CC)c3[nH]2)cc1 as the compound, how does the pKi [3] read?
The pKi was 6.85.

With CCn1c(=O)c2nc(-c3ccc(OCC(=O)OC(C)C)cc3)[nH]c2n(CC)c1=O as the compound, how does the pKi [3] read?
The pKi was 7.05.

What about the Kb [5] of the same compound?
Its Kb is 73 nM.

With Cn1c(=O)c2[nH]c(-c3ccc(OCC(=O)NCCN)cc3)nc2n(C)c1=O as the compound, how does the logP [1] read?
The logP was -0.63.

Which results are given for CCn1c(=O)c2nc(-c3ccc(OCC(=O)NCCNC(=O)[C@@H](N)CCCCN)cc3)[nH]c2n(CC)c1=O?
logP [1]: -1.2; Kb [6]: 23 nM

Which Kb [7] does the source give for CCCn1c(=O)c2nc(-c3ccc(OCC(=O)NCCNC(=O)[C@@H](N)CCCCN)cc3)[nH]c2n(CCC)c1=O here?
Its Kb is 37 nM.

For CCn1c(=O)c2nc(-c3ccc(OCC(=O)Nc4ccc(C)cc4)cc3)[nH]c2n(CC)c1=O, which Kb [2] is on record?
The Kb was 100 nM.

With Cn1c(=O)c2nc(-c3ccccc3)[nH]c2n(C)c1=O as the compound, how does the Kb [8] read?
The Kb was 1900 nM.

With CCCn1c(=O)c2nc(-c3ccc(OCOC(=O)CC)cc3)[nH]c2n(CCC)c1=O as the compound, how does the Kb [9] read?
The Kb was 135 nM.

With CCCn1c(=O)c2nc(-c3ccc(OCC(=O)OCC)cc3)[nH]c2n(CCC)c1=O as the compound, how does the pKi [3] read?
Its pKi is 7.89.

Which Kb [2] does the source give for CCn1c(=O)c2nc(-c3ccc(OCC(=O)Nc4ccc(CC(=O)OC)cc4)cc3)[nH]c2n(CC)c1=O here?
The Kb was 210 nM.

For Cn1c(=O)c2nc(-c3ccc(OCC(=O)NCCN)cc3)[nH]c2n(C)c1=O, which Kb [10] is on record?
The Kb was 40 nM.

For CCCn1c(=O)c2[nH]c(-c3ccc(OCC(=O)NCCN)cc3)nc2n(CCC)c1=O [XANTHINE AMINE CONGENER], which logP [1] is on record?
Its logP is 0.81.

For CCn1c(=O)c2nc(-c3ccc(OCC(=O)NCCNC(=O)C(CCCCNC(=O)OCc4ccccc4)NC(=O)OC(C)(C)C)cc3)[nH]c2n(CC)c1=O (stereo not drawn), which Kb [11] is on record?
Its Kb is 230 nM.

Which logP [1] does the source give for CCn1c(=O)c2[nH]c(-c3ccc(OCC(=O)NCCN)cc3)nc2n(CC)c1=O here?
The logP was -0.06.

Which Kb [8] does the source give for CCn1c(=O)c2nc(-c3ccccc3)[nH]c2n(CC)c1=O here?
Its Kb is 210 nM.

With CCn1c(=O)c2nc(-c3ccc(OCC(=O)Nc4ccc(CC(=O)NCCN)cc4)cc3)[nH]c2n(CC)c1=O as the compound, how does the Kb [12] read?
The Kb was 28 nM.
